In patent US20150025077A1 (COYOTE PHARMACEUTICALS, INC., priority 2012, published 2015):
Read-outs that look alike come from different tables or passages of the source.

Legend:
Sod1 mutant mice = assay type: in vivo
From the text: Values represent means±SEMs.
Subjects were weighed and tested for Grip Strength, and assigned Clinical and Neurological scores three times a week beginning at P90 and five times a week beginning at P100. The table below summarizes the experimental design of the study.
The grip strength test assesses motor function and control of the fore- and hindpaws. Mice were allowed to grab the bars on the Chatillon DFIS-10 digital force gauge (Largo, Fla.), while being gently pulled parallel away from the bars by the tail. The maximum force measured prior to release of the subject's paw from the bar was recorded.
Animals were scored using the scoring system tabulated below.

HSP60 = HSP60 gene expression in rat brain tissue, qRT-PCR; assay type: in vivo; conditions: 12 mg/kg oral
Description: […] Expression of selected HSPs was detected using qRT-PCR with expression of the GAPDH gene used as the control. To represent the effect of CNS-102 on HSP expression, mean fold change is calculated as CNS-102 treated/PBS treated for each HSP at each time point.

HSP70 [1] = assay: HSP70 expression in neuro2A cells, western blot; assay type: cell-based, mouse; conditions: for HSP70 western signal (absence of compounds = 1.00): 48 hours, GGTI-298
Description: Differentiation was induced and cells incubated with geranylgeranyl transferase I inhibitor, GGTI-298. Cells were harvested and lysates were prepared and analyzed by western blot for HSP70 and HSP90. Western signals in the absence of the compounds were normalized as 1.00.

Neuro2A cells = Neuro2A cells that extended neurites, with GGTI-298 (Example 18); assay type: cell-based; conditions: 0.1-1 μM; vehicle 0.0-0.20
From the text: After differentiation was induced, cells that extended neurites were counted.

[2] = mouse, in vivo, po, 12 mg/kg
From the text: Blood and serum samples from days P70 and P100 were collected on three animals from each of the six treatment groups. Hematology measures were white blood cell count, red blood cell count, hemoglobin, hematocrit, mean corpuscular volume, mean corpuscular hemoglobin, mean corpuscular hemoglobin concentration, and platelets. Chemistry values were alanine aminotransferase, aspartate aminotransferase, albumin, total protein, gamma globulin, blood urea nitrogen, cholesterol, and glucose. No analyses were conducted on any samples collected after P100.

HSP70 [3] = assay: HSP70 expression in cortex and hippocampus in vivo, western blot; set-up: species or system rat; HSP70 Expression (average, western blot): scale not given here; conditions: for delta HSP70 expression, CNS-102 minus PBS: 12 mg/kg oral
Description: The time course of protein expression, as measured by western blot for HSP70, was determined in triplicate for hippocampus, and cortex tissue samples taken from each of 5 animals per group at each of four time points (24, 48, 72, and 96 h) after treatment with either PBS or 12 mg/kg CNS-102, administered orally. The average expression for each treatment group is calculated at each time point for each tissue using PROC MIXED in SAS and are tabulated, along with the difference (delta) between treatment averages and a p-value comparing the difference to zero, below.

HSP70 [4] = conditions: rat eyes, single dose 12 mg/kg
[5] = system: Mouse Neuro2A neuroblastoma cells; assay: Neuro2A cells with neurites after GGTI-298 (Example 16); assay type: cell-based; conditions: 10 μM
Description: Mouse Neuro2A neuroblastoma cells were cultured in DMEM supplemented with 10% FBS for 24 hrs. […] Then differentiation was induced by retinoic acid in DMEM supplemented with 2% FBS. The cell culture was incubated with a Geranylgeranyl Transferase inhibitor, GGTI-298. After 24 hrs incubation, cells with neurites were counted.

Structure (SMILES): CC(=O)CC/C=C(\C)CC/C=C(\C)CC/C=C(\C)CCC=C(C)C [CNS-102]
- clinical and neuroscore testing (Sod1 mutant mice; Sod1 mutant mice, CNS-102 12 mg/kg or Riluzole 8 mg/kg daily oral, vs vehicle): tended to outperform group D
- neuroscore testing (Sod1 mutant mice; Sod1 mutant mice, several timepoints around and after P100, vs vehicle): significantly outperforms group D
- blood and neurology examinations (Sod1 mutant mice; more than two months of once-daily oral 12 mg/kg): no abnormalities in blood and neurology examinations
- body weight (Sod1 mutant mice; wild type mice, group F (CNS-102) vs group E (vehicle)): no noticeable differences
- toxicity or behavioral abnormalities (Sod1 mutant mice; wildtype animals dosed with vehicle versus CNS-102 12 mg/kg daily): does not lead to obvious toxicity or behavioral abnormalities
- HSP60 mean fold change (CNS-102 treated/PBS treated), mean ± SD (HSP60; 24 h): 1.26 ± 0.07
- HSP60 mean fold change (CNS-102 treated/PBS treated), mean ± SD (HSP60; 48 h): 0.89 ± 0.08
- HSP60 mean fold change (CNS-102 treated/PBS treated), mean ± SD (HSP60; 72 h): 1.72 ± 0.07
- HSP60 mean fold change (CNS-102 treated/PBS treated), mean ± SD (HSP60; 96 h): 1.57 ± 0.16
- HSP70 western signal (absence of compounds = 1.00) (HSP70 [1]; 100 nM): 1.38
- HSP70 western signal (absence of compounds = 1.00) (HSP70 [1]; 1 μM): 2.05
- HSP70 western signal (absence of compounds = 1.00) (HSP70 [1]; 10 μM): 2.14
- induction of HSP70 expression (HSP70 [1]; various concentrations): induce expression of HSP70
- Mean of cell numbers (cells that extended neurites) (Neuro2A cells): 0.45-0.65 Arbitrary units
- ABSOLUTE BASOPHIL [2]: 0 per mm^3
- ABSOLUTE EOSINOPHIL [2]: 61.6 per mm^3
- ABSOLUTE LYMPHOCYTE [2]: 3922.4 per mm^3
- ABSOLUTE MONOCYTE [2]: 49.8 per mm^3
- ABSOLUTE NEUTROPHIL SEG [2]: 659.6 per mm^3
- ALKALINE PHOSPHATASE [2]: 70.7 U/L
- BASOPHIL [2]: 0.0%
- BICARBONATE [2]: 5.0 mg/dL
- BUN [2]: 28.8 mg/dL
- CALCIUM [2]: 7.7 mg/dL
- CHOLESTEROL [2]: 72.4 mg/dL
- CREATININE [2]: <1 mg/dL
- DIRECT BILIRUBIN [2]: 0.0 mg/dL
- EOSINOPHIL [2]: 1.5%
- GLUCOSE [2]: 207.6 mg/dL
- HCT [2]: 46.0%
- HGB [2]: 13.6 gram/dL
- INDIRECT BILIRUBIN [2]: 0.0 mg/dL
- LYMPHOCYTE [2]: 84.0%
- MCH [2]: 15.5 pg
- MCHC [2]: 29.5%
- MCV [2]: 52.6 U^3
- MONOCYTE [2]: 0.8%
- NEUTROPHIL SEG [2]: 13.8%
- NRBC [2]: 0.0 per 100 WBC
- PHOSPHORUS [2]: 5.7 mg/dL
- PLATELET COUNT [2]: 1128.6 Thousands
- RBC [2]: 8.8 Millions
- SGOT (AST) [2]: 46.3 U/L
- SGPT (ALT) [2]: 37.8 U/L
- TOTAL BILIRUBIN [2]: 0.0 mg/dL
- WBC [2]: 4.7 thousands
- HSP70 Expression (average, western blot) (HSP70 [3]; Cortex, 24 hours after 12 mg/kg oral, PBS −0.256): −0.016
- delta HSP70 expression, CNS-102 minus PBS (HSP70 [3]; Cortex, 24 hours): 0.24
- HSP70 Expression (average, western blot) (HSP70 [3]; Cortex, 48 hours after 12 mg/kg oral, PBS −0.56): −0.45
- delta HSP70 expression, CNS-102 minus PBS (HSP70 [3]; Cortex, 48 hours): 0.11
- HSP70 Expression (average, western blot) (HSP70 [3]; Cortex, 72 hours after 12 mg/kg oral, PBS 0.01): 0.14
- delta HSP70 expression, CNS-102 minus PBS (HSP70 [3]; Cortex, 72 hours): 0.13
- HSP70 Expression (average, western blot) (HSP70 [3]; Cortex, 96 hours after 12 mg/kg oral, PBS −0.15): 0.04
- delta HSP70 expression, CNS-102 minus PBS (HSP70 [3]; Cortex, 96 hours): 0.19
- HSP70 Expression (average, western blot) (HSP70 [3]; Hippocampus, 24 hours after 12 mg/kg oral, PBS −0.072): −0.159
- delta HSP70 expression, CNS-102 minus PBS (HSP70 [3]; Hippocampus, 24 hours): −0.088
- HSP70 Expression (average, western blot) (HSP70 [3]; Hippocampus, 48 hours after 12 mg/kg oral, PBS −0.18): 0.02
- delta HSP70 expression, CNS-102 minus PBS (HSP70 [3]; Hippocampus, 48 hours): 0.2
- HSP70 Expression (average, western blot) (HSP70 [3]; Hippocampus, 72 hours after 12 mg/kg oral, PBS −0.2): −0.06
- delta HSP70 expression, CNS-102 minus PBS (HSP70 [3]; Hippocampus, 72 hours): 0.14
- HSP70 Expression (average, western blot) (HSP70 [3]; Hippocampus, 96 hours after 12 mg/kg oral, PBS −0.49): −0.32
- delta HSP70 expression, CNS-102 minus PBS (HSP70 [3]; Hippocampus, 96 hours): 0.17
- HSP70 Expression (Fold change vs vehicle control), mean ± SD (HSP70 [4]; 24 hr): 1.47 ± 0.36
- HSP70 Expression (Fold change vs vehicle control), mean ± SD (HSP70 [4]; 48 hr): 1.33 ± 0.10
- HSP70 Expression (Fold change vs vehicle control), mean ± SD (HSP70 [4]; 72 hr): 1.40 ± 0.11
- Mean of cell numbers (cells with neurites) [5]: 0.738 Arbitrary units
